From ChEMBL document CHEMBL1201862, “PubChem BioAssay data set” (2004)
The source made the active and inactive calls.

Tests used:
[1] = molecular target: T1, Sentrin-specific protease 8 (Homo sapiens, UniProt Q96LD8); format: functional
T1 sequence (Q96LD8 whole entry): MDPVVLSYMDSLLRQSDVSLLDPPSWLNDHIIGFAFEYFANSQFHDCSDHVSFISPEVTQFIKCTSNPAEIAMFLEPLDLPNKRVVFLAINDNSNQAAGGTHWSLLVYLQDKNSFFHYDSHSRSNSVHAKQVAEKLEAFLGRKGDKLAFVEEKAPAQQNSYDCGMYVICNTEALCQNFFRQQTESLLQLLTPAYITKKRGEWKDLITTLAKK

[2] = molecular target: T1, Sentrin-specific protease 8; format: functional; remark: listed apart in the source
Caspase-3 = molecular target: T2, Caspase-3 (Homo sapiens, UniProt P42574); test: Dose-response confirmation of uHTS inhibitor hits of Sentrin-Specific Protease 8 in a Caspase-3 Fluorescence assay.; format: functional
T2 sequence (P42574 whole entry): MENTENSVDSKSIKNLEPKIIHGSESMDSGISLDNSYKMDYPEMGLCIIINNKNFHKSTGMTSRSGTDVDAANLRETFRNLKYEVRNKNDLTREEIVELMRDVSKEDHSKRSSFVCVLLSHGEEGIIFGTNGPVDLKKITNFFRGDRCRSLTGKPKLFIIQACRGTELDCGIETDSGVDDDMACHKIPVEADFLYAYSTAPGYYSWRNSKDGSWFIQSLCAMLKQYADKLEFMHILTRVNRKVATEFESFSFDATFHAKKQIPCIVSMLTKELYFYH

[3] = molecular target: 26S proteasome non-ATPase regulatory subunit 14 (Homo sapiens, UniProt O00487); test: inhibition of proteasome subunit RPN11 – biochemical, fluorescence polarization, uHTS hits, confirmation (AID 602368); format: functional
Prothrombin = Prothrombin (Bos taurus, UniProt P00735); test: thrombin protease inhibitors – biochemical, fluorescence polarization, uHTS hits, dose response (AID 602369); format: functional
[4] = molecular target: 72 kDa type IV collagenase (Homo sapiens, UniProt P08253); test: Dose Response validation of uHTS RPN11 inhibitor hits using a MMP-2 Fluorescence assay.; format: functional
[5] = molecular target: T3, Tyrosine-protein phosphatase non-receptor type 11 (Homo sapiens, UniProt Q06124); test: PTPN11 enzyme inhibitors – biochemical, selectivity assay for STEP inhibitor project, dose response (AID 602367); format: functional; conditions: read-out: IC50_Mean
T3 sequence (Q06124 whole entry): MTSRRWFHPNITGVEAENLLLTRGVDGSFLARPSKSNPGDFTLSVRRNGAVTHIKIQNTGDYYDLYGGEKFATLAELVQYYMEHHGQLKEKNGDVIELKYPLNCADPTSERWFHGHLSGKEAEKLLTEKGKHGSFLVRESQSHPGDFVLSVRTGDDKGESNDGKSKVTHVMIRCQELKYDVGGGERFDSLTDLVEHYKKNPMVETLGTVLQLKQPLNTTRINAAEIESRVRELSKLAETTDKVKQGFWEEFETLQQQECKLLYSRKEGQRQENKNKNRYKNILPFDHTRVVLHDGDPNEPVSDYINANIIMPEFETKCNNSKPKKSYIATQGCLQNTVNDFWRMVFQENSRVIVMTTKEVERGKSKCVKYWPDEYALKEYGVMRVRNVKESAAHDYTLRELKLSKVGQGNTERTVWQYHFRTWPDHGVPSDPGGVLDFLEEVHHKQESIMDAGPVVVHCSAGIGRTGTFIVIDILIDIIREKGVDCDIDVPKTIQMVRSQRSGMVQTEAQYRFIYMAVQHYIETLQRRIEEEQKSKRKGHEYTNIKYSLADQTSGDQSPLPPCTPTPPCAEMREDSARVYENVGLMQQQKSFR

[6] = molecular target: Tyrosine-protein phosphatase non-receptor type 22 (Homo sapiens, UniProt Q9Y2R2); test: lymphoid phosphatase LYP inhibitors – biochemical, selectivity assay for STEP inhibitor project, dose response (AID 624241); format: functional
[7] = molecular target: T4, Tyrosine-protein phosphatase non-receptor type 5 (Homo sapiens, UniProt P54829); test: PTPN5 enzyme inhibition – biochemical, fluorescence intensity, uHTS hits, confirmation (AID 602372); format: functional; conditions: read-out: IC50_Mean
T4 sequence (P54829 whole entry): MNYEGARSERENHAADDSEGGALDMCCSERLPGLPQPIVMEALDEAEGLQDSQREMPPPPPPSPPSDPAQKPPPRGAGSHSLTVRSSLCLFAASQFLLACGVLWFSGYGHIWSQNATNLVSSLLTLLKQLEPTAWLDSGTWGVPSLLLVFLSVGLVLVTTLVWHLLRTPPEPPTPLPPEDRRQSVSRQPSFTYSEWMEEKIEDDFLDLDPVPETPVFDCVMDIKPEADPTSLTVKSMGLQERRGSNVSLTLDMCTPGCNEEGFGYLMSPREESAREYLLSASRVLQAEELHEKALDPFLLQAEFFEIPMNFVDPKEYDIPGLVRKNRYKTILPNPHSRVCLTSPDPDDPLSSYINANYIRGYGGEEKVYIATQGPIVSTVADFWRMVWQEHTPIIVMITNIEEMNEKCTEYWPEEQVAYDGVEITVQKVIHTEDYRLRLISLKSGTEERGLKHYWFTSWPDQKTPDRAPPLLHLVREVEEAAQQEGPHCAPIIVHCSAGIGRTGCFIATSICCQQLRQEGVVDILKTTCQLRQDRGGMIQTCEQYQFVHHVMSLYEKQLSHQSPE

[8] = molecular target: Dual specificity protein phosphatase 3 (Homo sapiens, UniProt P51452); test: VHR phosphatase inhibition, dose response, selectivity assay for STEP inhibitor project, biochemical (AID 602374); format: functional; conditions: read-out: IC50_Mean
[9] = molecular target: T5, Corticotropin-releasing factor receptor 2/Corticotropin-releasing factor-binding protein (Homo sapiens, UniProt P24387+Q13324); test: activators of CRF receptor 2 with binding protein – uHTS hits, confirmation (AID 602473); format: functional; conditions: read-out: EC50_Mean
T5 sequence (Q13324 whole entry): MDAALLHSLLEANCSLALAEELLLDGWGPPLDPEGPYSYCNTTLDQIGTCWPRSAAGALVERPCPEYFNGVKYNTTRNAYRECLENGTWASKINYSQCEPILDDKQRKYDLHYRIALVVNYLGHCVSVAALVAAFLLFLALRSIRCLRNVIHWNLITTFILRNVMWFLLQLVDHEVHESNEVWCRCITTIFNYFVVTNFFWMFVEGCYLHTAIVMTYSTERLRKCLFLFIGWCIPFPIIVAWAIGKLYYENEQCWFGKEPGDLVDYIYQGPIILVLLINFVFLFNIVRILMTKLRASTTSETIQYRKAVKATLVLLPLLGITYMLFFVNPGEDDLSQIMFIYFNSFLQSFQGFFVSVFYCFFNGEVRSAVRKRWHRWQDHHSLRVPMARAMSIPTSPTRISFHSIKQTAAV
T5 sequence (P24387 whole entry): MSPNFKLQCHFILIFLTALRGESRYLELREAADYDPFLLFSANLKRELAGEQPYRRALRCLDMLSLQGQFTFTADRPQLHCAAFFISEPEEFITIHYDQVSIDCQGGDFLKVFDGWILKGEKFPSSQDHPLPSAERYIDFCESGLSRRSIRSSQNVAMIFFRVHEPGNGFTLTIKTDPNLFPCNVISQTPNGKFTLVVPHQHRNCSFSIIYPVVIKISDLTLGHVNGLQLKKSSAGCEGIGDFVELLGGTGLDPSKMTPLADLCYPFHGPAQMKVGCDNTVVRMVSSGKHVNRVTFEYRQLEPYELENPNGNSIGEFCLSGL

[10] = molecular target: DNA repair and recombination protein RAD54-like (Homo sapiens, UniProt Q92698); test: RAD54 Holliday junction migration blockers – biochemical, fluorescence, cherry-picked samples, dose series, confirmation (AID 651657); format: functional
Vero = test: cells; format: functional; conditions: Chlorocebus sabaeus
[11] = molecular target: T6, DNA repair protein RAD52 homolog (Homo sapiens, UniProt P43351); format: functional, biochemical
T6 sequence (P43351 whole entry): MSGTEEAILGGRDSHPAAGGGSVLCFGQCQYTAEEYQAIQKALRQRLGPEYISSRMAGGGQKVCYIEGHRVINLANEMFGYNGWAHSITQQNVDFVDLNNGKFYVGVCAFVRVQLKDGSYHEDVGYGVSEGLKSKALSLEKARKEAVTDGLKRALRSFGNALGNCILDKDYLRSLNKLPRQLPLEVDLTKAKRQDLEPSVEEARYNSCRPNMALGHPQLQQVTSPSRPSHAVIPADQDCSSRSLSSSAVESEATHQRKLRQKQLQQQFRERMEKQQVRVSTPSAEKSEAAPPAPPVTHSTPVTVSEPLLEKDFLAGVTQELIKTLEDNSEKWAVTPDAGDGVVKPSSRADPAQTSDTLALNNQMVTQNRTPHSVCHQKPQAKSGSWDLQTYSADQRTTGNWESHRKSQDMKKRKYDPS

72 kDa type IV collagenase, sequence (P08253 whole entry): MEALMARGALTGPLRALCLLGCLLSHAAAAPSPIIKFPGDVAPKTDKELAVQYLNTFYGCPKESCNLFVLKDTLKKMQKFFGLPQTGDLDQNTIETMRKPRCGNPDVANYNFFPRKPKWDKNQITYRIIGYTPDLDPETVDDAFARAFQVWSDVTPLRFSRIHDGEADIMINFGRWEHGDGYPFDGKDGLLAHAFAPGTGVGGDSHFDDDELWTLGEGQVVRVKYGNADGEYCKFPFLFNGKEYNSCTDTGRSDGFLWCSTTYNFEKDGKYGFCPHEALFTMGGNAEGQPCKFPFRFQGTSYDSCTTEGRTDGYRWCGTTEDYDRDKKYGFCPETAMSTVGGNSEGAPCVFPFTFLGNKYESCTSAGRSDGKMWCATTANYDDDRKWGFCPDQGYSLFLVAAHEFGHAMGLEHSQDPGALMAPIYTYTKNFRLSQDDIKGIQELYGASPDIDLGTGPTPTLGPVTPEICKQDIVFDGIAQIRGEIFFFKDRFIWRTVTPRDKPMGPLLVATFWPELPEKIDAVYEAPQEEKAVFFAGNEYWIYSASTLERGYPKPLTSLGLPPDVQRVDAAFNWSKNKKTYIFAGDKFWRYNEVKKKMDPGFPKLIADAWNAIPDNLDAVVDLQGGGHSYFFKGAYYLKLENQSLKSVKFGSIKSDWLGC
26S proteasome non-ATPase regulatory subunit 14, sequence (O00487 whole entry): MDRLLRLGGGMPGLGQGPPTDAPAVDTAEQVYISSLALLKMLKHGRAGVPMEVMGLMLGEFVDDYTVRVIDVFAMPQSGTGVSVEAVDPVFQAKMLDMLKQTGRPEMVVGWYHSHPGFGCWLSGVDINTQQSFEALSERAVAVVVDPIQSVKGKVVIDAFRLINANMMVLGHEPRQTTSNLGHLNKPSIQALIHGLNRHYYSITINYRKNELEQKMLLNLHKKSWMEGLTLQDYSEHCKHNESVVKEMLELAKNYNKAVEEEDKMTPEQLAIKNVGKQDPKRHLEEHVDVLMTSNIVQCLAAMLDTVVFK
DNA repair and recombination protein RAD54-like, sequence (Q92698 whole entry): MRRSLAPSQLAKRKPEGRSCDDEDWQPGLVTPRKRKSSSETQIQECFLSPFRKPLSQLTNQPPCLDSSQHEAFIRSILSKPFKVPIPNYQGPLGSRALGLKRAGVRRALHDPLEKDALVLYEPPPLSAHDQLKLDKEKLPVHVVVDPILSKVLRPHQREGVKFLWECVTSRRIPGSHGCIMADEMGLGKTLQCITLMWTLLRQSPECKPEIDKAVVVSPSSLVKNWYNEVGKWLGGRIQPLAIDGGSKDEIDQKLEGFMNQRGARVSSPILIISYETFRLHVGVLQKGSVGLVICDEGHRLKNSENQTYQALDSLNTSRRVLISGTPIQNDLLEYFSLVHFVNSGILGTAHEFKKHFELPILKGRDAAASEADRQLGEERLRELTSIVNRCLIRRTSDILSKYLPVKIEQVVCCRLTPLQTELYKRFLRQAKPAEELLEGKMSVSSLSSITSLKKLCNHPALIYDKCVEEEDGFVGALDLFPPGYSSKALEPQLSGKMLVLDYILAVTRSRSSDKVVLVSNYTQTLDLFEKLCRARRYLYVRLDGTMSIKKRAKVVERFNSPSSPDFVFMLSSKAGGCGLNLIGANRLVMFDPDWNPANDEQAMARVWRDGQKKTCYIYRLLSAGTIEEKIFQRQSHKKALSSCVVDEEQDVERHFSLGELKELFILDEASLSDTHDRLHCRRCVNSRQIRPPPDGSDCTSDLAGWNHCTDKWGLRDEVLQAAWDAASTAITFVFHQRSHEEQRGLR
Tyrosine-protein phosphatase non-receptor type 22, sequence (Q9Y2R2 whole entry): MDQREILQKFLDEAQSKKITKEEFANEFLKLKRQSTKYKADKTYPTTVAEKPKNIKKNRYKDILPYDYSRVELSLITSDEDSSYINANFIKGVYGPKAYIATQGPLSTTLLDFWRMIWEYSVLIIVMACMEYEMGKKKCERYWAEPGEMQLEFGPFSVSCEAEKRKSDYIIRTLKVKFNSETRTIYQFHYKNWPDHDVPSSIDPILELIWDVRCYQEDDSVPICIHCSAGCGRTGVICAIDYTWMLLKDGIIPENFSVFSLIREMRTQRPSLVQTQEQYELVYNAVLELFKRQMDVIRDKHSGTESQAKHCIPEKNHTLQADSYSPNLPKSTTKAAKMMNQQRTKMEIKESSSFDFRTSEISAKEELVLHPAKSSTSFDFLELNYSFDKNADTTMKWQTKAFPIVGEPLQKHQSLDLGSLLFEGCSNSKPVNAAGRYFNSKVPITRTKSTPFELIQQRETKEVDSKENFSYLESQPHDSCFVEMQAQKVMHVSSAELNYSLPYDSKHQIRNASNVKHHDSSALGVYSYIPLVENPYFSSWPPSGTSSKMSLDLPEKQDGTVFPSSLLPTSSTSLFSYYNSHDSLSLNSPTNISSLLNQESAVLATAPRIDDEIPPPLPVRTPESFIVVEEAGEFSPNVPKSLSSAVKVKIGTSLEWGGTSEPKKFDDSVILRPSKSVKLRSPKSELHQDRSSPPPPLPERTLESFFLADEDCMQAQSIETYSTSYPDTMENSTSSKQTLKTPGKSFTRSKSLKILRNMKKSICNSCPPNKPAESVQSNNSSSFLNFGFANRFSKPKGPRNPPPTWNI
Dual specificity protein phosphatase 3, sequence (P51452 whole entry): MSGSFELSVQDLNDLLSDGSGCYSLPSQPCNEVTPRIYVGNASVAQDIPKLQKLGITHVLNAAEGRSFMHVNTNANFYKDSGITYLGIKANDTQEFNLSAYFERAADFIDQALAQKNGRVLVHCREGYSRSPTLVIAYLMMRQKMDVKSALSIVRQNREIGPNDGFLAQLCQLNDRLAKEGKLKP

O=C(CCC(=O)N1CCc2ccccc2C1)N1CCN(S(=O)(=O)c2ccccc2)CC1
IC50 [1]: 12.9 µM (active) | IC50 [2]: 22.2 µM (active) | IC50 (Caspase-3): 50 µM (active)

CCn1c(SCC(=O)c2c[nH]c3ccccc23)nnc1-c1cccs1
IC50 [3]: 24.3 µM (active) | IC50 (Prothrombin): 60.5 µM (active) | IC50 [4]: > 100 µM (inactive)

COc1ccccc1NS(=O)(=O)c1cc(NC(=O)c2sccc2C)ccc1N1CCCC1
IC50 [5]: 665 nM (active) | IC50 [6]: 25.9 µM (inactive) | IC50 [7]: 2.73 µM (active) | IC50 [8]: 163 nM (active)

Cc1ccc(N2C(=O)/C(=C\NN3CCCCC3c3cccnc3)C(=O)NC2=S)cc1 (stereo not drawn)
IC50 [3]: 31.7 µM (active) | IC50 (Prothrombin): 71.3 µM (active) | IC50 [4]: > 100 µM (inactive)

O=c1c2ccccc2sc2ccc(NCCCN3CCOCC3)cc12
EC50 [9]: 7.98 µM (active) | AC50 [10]: 31.2 µM (active) | CC50 (Vero): > 25 µM (active)

N=c1n(CCN2CCCCC2)c2ccccc2n1CC(=O)c1cccc([N+](=O)[O-])c1
AC50 [11]: 9.9 µM (active) | AC50 [10]: 23.7 µM (active)
